Assay results as given in patent US5714576A, “Linear analogs of alpha-msh fragments” (Competitive Technologies, Inc., priority 1997, dated 1998).
Like-named read-outs stand apart in the source and are kept apart here. Positions of bridges follow the written chain, without caps; N, C: chain ends. Non-standard residues stand in square brackets, D forms with d. Residues, ends and D or L forms follow the SMILES beside them. Nle = CCCC[C@H](N)C(=O)O

Tests used:
Frog (Rana pipiens) Skin [1] = type: cell-based
Experimental: (§1) The biological potencies of alpha-MSH, the linear and cyclic analogues were determined by their ability to stimulate melanosome dispersion in vitro in the frog and lizard bioassays. This in vitro assay provides clear cut dose response curves (between 2.5×10^-11 and 4×10^-10 M) and can detect minimal concentration of alpha-MSH of about 10^-11 M. The assay is based upon the centrifugal dispersion of melanosomes (melanin granules) within the dendritic processes of integumental dermal melanophores leading to darkening of the skin. All the test solutions were prepared via serial dilutions from a stock solution (10^-4 M). The frogs (Rana pipiens) used in these evaluations were obtained from Kons Scientific, Germantown, Wis., and the lizards (Anolis carolinensis) were from the Snake Farm, La Place, La.

[2] = tested on: Lizard (Anolis carolinensis) Skin; type: cell-based
Experimental: as §1

[3] = tested on: Lizard (Anolis carolinensis) Skin; details: relative to alpha-MSH = 1.0; selective fragments of alpha-MSH, previous research; cited from earlier work
Frog (Rana pipiens) Skin [4] = details: cited from earlier work; for Relative Potency Frog: relative to alpha-MSH = 1.0, selective fragments of alpha-MSH, previous research
[5] = cyclic analogues, alpha-MSH = 1.0

Molecule: CCCC[C@H](NC(C)=O)C(=O)N[C@@H](CCC(=O)O)C(=O)N[C@@H](Cc1c[nH]cn1)C(=O)N[C@@H](Cc1ccccc1)C(=O)N[C@@H](CCCNC(=N)N)C(=O)N[C@@H](Cc1c[nH]c2ccccc12)C(=O)N[C@@H](CCCCN)C(N)=O [Analogue 13]
- Biological Potency Frog (Frog (Rana pipiens) Skin [1]): 0.001
- Residual Activity Frog (prolonged action) (Frog (Rana pipiens) Skin [1]; linear analogues): P(+)
- Biological Potency Lizard [2]: 0.08
- Residual Activity Lizard (prolonged action) ([2]; linear analogues): P(-)

Molecule: CCCC[C@H](NC(C)=O)C(=O)N[C@H]1CCC(=O)NCCCC[C@@H](C(=O)NCC(=O)N2CCC[C@H]2C(=O)N[C@H](C(N)=O)C(C)C)NC(=O)[C@H](Cc2c[nH]c3ccccc23)NC(=O)[C@H](CCCNC(=N)N)NC(=O)[C@@H](Cc2ccccc2)NC(=O)[C@H](Cc2c[nH]cn2)NC1=O [Analogue 15] (Ac-[Nle]EH[dF]RWKGPV-NH2; lactam 2-7)
- Residual Activity Frog (prolonged action) (Frog (Rana pipiens) Skin [1]; cyclic analogues): p(+)
- Biological Potency Frog (Frog (Rana pipiens) Skin [1]; [5]): 1.0
- Residual Activity Lizard (prolonged action) ([2]; cyclic analogues): p(+)
- Biological Potency Lizard [2, 5]: 6.0

Molecule: CCCC[C@H](NC(C)=O)C(=O)N[C@H]1CCC(=O)NCCCC[C@@H](C(N)=O)NC(=O)[C@H](Cc2c[nH]c3ccccc23)NC(=O)[C@H](CCCNC(=N)N)NC(=O)[C@@H](Cc2ccccc2)NC(=O)[C@H](Cc2c[nH]cn2)NC1=O [Analogue 16]
- Residual Activity Frog (prolonged action) (Frog (Rana pipiens) Skin [1]; cyclic analogues): p(+)
- Biological Potency Frog (Frog (Rana pipiens) Skin [1]; [5]): 0.5
- Residual Activity Lizard (prolonged action) ([2]; cyclic analogues): p(+)
- Biological Potency Lizard [2, 5]: 9.0

Molecule: CCCC[C@H](NC(C)=O)C(=O)N[C@H]1CC(=O)NCCC[C@@H](C(N)=O)NC(=O)[C@H](Cc2c[nH]c3ccccc23)NC(=O)[C@H](CCCNC(=N)N)NC(=O)[C@@H](Cc2ccccc2)NC(=O)[C@H](Cc2c[nH]cn2)NC1=O [Analogue 18]
- Residual Activity Frog (prolonged action) (Frog (Rana pipiens) Skin [1]; cyclic analogues): p(-)
- Biological Potency Frog (Frog (Rana pipiens) Skin [1]; [5]): 1.0
- Residual Activity Lizard (prolonged action) ([2]; cyclic analogues): p(-)
- Biological Potency Lizard [2, 5]: 20.0

Molecule: CCCC[C@H](NC(C)=O)C(=O)N[C@H]1CC(=O)NCC[C@@H](C(N)=O)NC(=O)[C@H](Cc2c[nH]c3ccccc23)NC(=O)[C@H](CCCNC(=N)N)NC(=O)[C@@H](Cc2ccccc2)NC(=O)[C@H](Cc2c[nH]cn2)NC1=O [Analogue 19]
- Residual Activity Frog (prolonged action) (Frog (Rana pipiens) Skin [1]; cyclic analogues): p(-)
- Biological Potency Frog (Frog (Rana pipiens) Skin [1]; [5]): 1.0
- Residual Activity Lizard (prolonged action) ([2]; cyclic analogues): p(-)
- Biological Potency Lizard [2, 5]: 5.0

Molecule: CCCC[C@H](NC(C)=O)C(=O)N[C@H]1CC(=O)NC[C@@H](C(N)=O)NC(=O)[C@H](Cc2c[nH]c3ccccc23)NC(=O)[C@H](CCCNC(=N)N)NC(=O)[C@@H](Cc2ccccc2)NC(=O)[C@H](Cc2c[nH]cn2)NC1=O [Analogue 20]
- Residual Activity Frog (prolonged action) (Frog (Rana pipiens) Skin [1]; cyclic analogues): p(-)
- Biological Potency Frog (Frog (Rana pipiens) Skin [1]; [5]): 0.01
- Residual Activity Lizard (prolonged action) ([2]; cyclic analogues): p(-)
- Biological Potency Lizard [2, 5]: 5.0

Molecule: Ac--[Nle^4 ]-alpha-MSH4-10 NH2
- Relative Potency Lizard [3]: 0.06
- Relative Potency Frog (Frog (Rana pipiens) Skin [4]): 0.002

Molecule: Ac--[Nle^4 ]-alpha-MSH4-11 NH2
- Relative Potency Lizard [3]: 1.0
- Relative Potency Frog (Frog (Rana pipiens) Skin [4]): 0.002

Molecule: Ac--[Nle^4, D--Phe^7 ]-alpha-MSH4-10 NH2
- Relative Potency Lizard [3]: 10.0
- Relative Potency Frog (Frog (Rana pipiens) Skin [4]): 0.02

Molecule: Ac--[Nle^4,D--Phe^7 ]-alpha-MSH1-13 NH2
- Relative Potency Lizard [3]: 5.0
- Relative Potency Frog (Frog (Rana pipiens) Skin [4]): 60.0

Molecule: Ac-Met-Glu-His-Phe-Arg-Trp-Gly-NH2 [Ac-alpha-MSH4-10 NH2]
- Relative Potency Lizard [3]: 0.004
- melanocyte stimulating activity in frog skin (Frog (Rana pipiens) Skin [4]; compared to the native hormone): weak agonist
- Relative Potency Frog (Frog (Rana pipiens) Skin [4]): 0.0003

Molecule: Ac[Nle^4, D--Phe^7 ]-alpha-MSH4-11 NH2
- Relative Potency Lizard [3]: 8.0
- Relative Potency Frog (Frog (Rana pipiens) Skin [4]): 0.16
